Like-named read-outs stand apart in the source and are kept apart here.
Assays:
liver GSH [1] = settings: cited from earlier work
lung GSH = settings: after BSO, before 200 mg/kg naphthalene; cited from earlier work
mouse lung = settings: cited from earlier work; for Covalent binding in the lung: Male Swiss-Webster mouse, ip
mouse liver microsomes [2] = settings: Observed; 1 mM naphthalene, 5 mM GSH; cited from earlier work
Sherman rats = settings: po, cited from earlier work
liver GSH [3] = settings: 200 mg/kg oral, rat, 6 1/2 hours; observed; cited from earlier work
mouse liver = settings: 200 mg/kg naphthalene, cited from earlier work
Clara cells of the lung = settings: similar binding levels in lung and liver; cited from earlier work
[4] = Biotransformation of naphthalene by rat lung microsomes; assay type: in vitro ADME
Excerpt: (§1) Determination of Vmax's and Km's for naphthalene oxide production and Vmax's for GSH conjugates and dihydrodiol production in rat microsomes were done in the same way as for the mouse. Sources of data were Buckpitt, et al, 1987, supra, Hesse, S. and Mezger, M., "Involvement of Phenolic Metabolites in the Irreversible Protein-binding of Aromatic Hydrocarbons: Reactive Metabolites of [^14 C]-naphthalene and [^14 C] 1-naphthol Formed by Rat Liver Microsomas", Mol. Pharmacol. 16: 667-675 (1979) which is hereby incorporated by reference, O'Brien et al., 1985, supra, van Bladeren et al., 1985, supra, and Yost, G. S., Buckpitt, A. R., Roth, R. A., and McLemore, T. L., "Mechanisms of Lung Injury by Systematically Administered Chemicals", Toxicol. Appl. Pharmacol. 101: 179-195 (1989), which is hereby incorporated by reference.

[5] = Biotransformation of naphthalene by rat liver microsomes; assay type: in vitro ADME
Excerpt: as §1

mouse liver microsomes [6] = settings: cited from earlier work
mouse lung microsomes [7] = assay: Biotransformation of naphthalene by mouse lung microsomes; assay type: in vitro ADME
Procedure: (§2) Biotransformation rates of naphthalene at initial concentrations of 0.05, 0.1 and 1.0 mM by lung and liver microsomes have been determined (O'Brien, et al. (1985), supra, Buckpitt, A. R., Bahnson, L. S., and Franklin, R. B., "Hepatic and Pulmonary Microsomal Metabolism of Naphthalene to Glutathione Adducts: Factors Affecting the Relative Rates of Conjugate Formation", J. Pharmacol. Exp. Ther. 231: 291-300 (1984), which is hereby incorporated by reference), and Buckpitt, A. R., Castagnoli, Jr., N., Nelson, et al., "Stereoselectivity of Naphthalene Epoxidation by Mouse, Rat, and Hamster Pulmonary, Hepatic and Renal Microsomal Enzymes", Drug Metab. Dispos. 15: 491-498 (1987), which is hereby incorporated by reference). Assuming Michaelis-Menten kinetics, fitting s/v vs s was used to provide Vmax and Km values. Since mouse liver produces the 1R,2S- and 1S,2R-naphthalene oxide enantiomers in equal amounts at all substrate concentrations (Buckpitt, et al., 1987, supra), the calculated Vmax was divided by two to give the production rates for each enantiomer.
(§3) For the lung, the biotransformation of naphthalene was modeled as the sum of two separate reactions, each producing a different enantiomer, with the Vmax's summing to the value calculated as described above.

[8] = as above; assay type: in vitro ADME; settings: mouse, lung microsomes
Procedure: as §2, §3

mouse liver microsomes [9] = assay: Biotransformation of naphthalene by mouse liver microsomes; assay type: in vitro ADME; settings: Mouse, Liver
Procedure: as §2

[10] = as above; assay type: in vitro ADME; settings: mouse, liver microsomes; read-out: Km, N to 1R, 2S NO
Procedure: as §2

CD-1 mice = settings: po, cited from earlier work
mouse lung microsomes [11] = settings: cited from earlier work
[12] = Liver, Experiment, 0.1 mM naphthalene, 6 minutes
[13] = Lung, Experiment, 0.1 mM naphthalene, 6 minutes
[14] = [N] 1.0 mM, Buckpitt et al., 1987

CCCCS(=N)(=O)CCC(N)C(=O)O (stereo not shown) [BSO, buthionine sulfoximine]
GSH level in liver, percent of control (liver GSH [1]; after BSO, before 200 mg/kg naphthalene): 35%
hepatic and pulmonary GSH (liver GSH [1]; mice pretreated with BSO): hepatic and pulmonary GSH are depleted
GSH depletion, liver versus lung (liver GSH [1]; treatment of mice with BSO): depletes GSH in the liver more than in the lung
GSH level in lung, percent of control (lung GSH): 86%

c1ccc2ccccc2c1 [naphthalene]
experimental covalent binding in lung (mouse lung; 200 mg/kg naphthalene, with BSO pretreatment): 411 pmol/mg
experimental covalent binding in lung (mouse lung; 200 mg/kg naphthalene, without BSO): 137 pmol/mg
experimental increase in lung covalent binding by BSO (mouse lung; 200 mg/kg naphthalene): 3.0 factor
Covalent binding in the lung (mouse lung; 300 mg/kg): 675 pmol/mg
Covalent binding in the lung (mouse lung; 400 mg/kg): 912 pmol/mg
1,2 dihydrodiol formation rate (mouse liver microsomes [2]): 2.43 nmol/mg/min
Conjugate 2 formation rate (mouse liver microsomes [2]): 3.64 nmol/mg/min
Conjugates 1 and 3 formation rate (mouse liver microsomes [2]): 3.56 nmol/mg/min
LD50 (Sherman rats; female Sherman rats): 2400 mg/kg
LD50 (Sherman rats; male Sherman rats): 2200 mg/kg
liver GSH, percent of the initial concentration (liver GSH [3]): 17%
observed binding level in liver (mouse liver; with BSO pretreatment): 1069 pmol/mg
observed binding level in liver (mouse liver; without BSO): 255 pmol/mg
site of toxicity (Clara cells of the lung): toxicity is limited to the Clara cells of the lung
Km ([4]; read-out: Km, N to 1R, 2S NO): 400 µM
Km ([4]; read-out: Km, N to 1S, 2R NO): 1540 µM
Km ([5]; read-out: Km, N to 1R, 2S NO): 400 µM
Km ([5]; read-out: Km, N to 1S, 2R NO): 800 µM
Covalently bound (mouse liver microsomes [6]; [12]): 5.8 nmol/mg
Diol formed (mouse liver microsomes [6]; [12]): 11.9 nmol/mg
NOH formed (mouse liver microsomes [6]; [12]): 3.5 nmol/mg
1R,2S- and 1S,2R-naphthalene oxide enantiomers produced (mouse liver microsomes [6]; mouse liver, all substrate concentrations): equal amounts
Vmax, N to 1R, 2S NO (mouse lung microsomes [7]): 9.0 nmol/mg/min
Vmax, N to 1S, 2R NO (mouse lung microsomes [7]): 1.1 nmol/mg/min
Km ([8]; read-out: Km, N to 1R, 2S NO): 100 µM
Km ([8]; read-out: Km, N to 1S, 2R NO): 400 µM
Vmax, N to 1R, 2S NO (mouse liver microsomes [9]): 6.95 nmol/mg/min
Vmax, N to 1S, 2R NO (mouse liver microsomes [9]): 6.95 nmol/mg/min
Km [10]: 307 µM
LD50 (CD-1 mice; female CD-1 mice): 710 mg/kg
LD50 (CD-1 mice; male CD-1 mice): 533 mg/kg
Covalently bound (mouse lung microsomes [11]; [13]): 7.4 nmol/mg
Diol formed (mouse lung microsomes [11]; [13]): 4.2 nmol/mg
NOH formed (mouse lung microsomes [11]; [13]): 21.2 nmol/mg
observed ratio of conjugates of 1R, 2S and 1S, 2R naphthalene oxide (mouse lung microsomes [11]; [N] 0.015 mM, Buckpitt and Franklin, 1989): 30
observed v (mouse lung microsomes [11]; [N] 0.05 mM, O'Brien et al., 1985): 1.33 nanomoles of product/mg micros
observed v (mouse lung microsomes [11]; [N] 0.10 mM, Buckpitt et al., 1984): 6.01 nanomoles of product/mg micros
observed ratio of conjugates of 1R, 2S and 1S, 2R naphthalene oxide (mouse lung microsomes [11]; [14]): 10
observed v (mouse lung microsomes [11]; [14]): 8.3 nanomoles of product/mg micros
